Reference: EP2832348B1, “METHOD FOR DISSOLVING FLAVONOID COMPOUND, CARBON GLYCOSIDE COMPOUND, OR STILBENE COMPOUND AND METHOD FOR PREPARING AN INJECTION OR A POWDER FOR INJECTION” (Kunming Pharmaceutical Corp., priority 2012, dated 2013)
Each block holds one molecule with its values, some of them ahead of it.

Assay: Dissolving the compound with solubilizer in heated, vacuum-stirred water for injection under nitrogen or argon gas (preparation tank)
Format: physicochemical
Conditions: kept at 80 °C
Procedure: In view of this, the present invention provides a method for dissolving a carbon glycoside compound or a stilbene compound, characterized in that the method comprises the following steps: • heating water for injection to 80-98 °C, followed by stirring under vacuum condition at 30-80 °C, and then adding the carbon glycoside compound or the stilbene compound along with a solubilizer under the protection of nitrogen gas or argon gas to obtain a solution of said compounds; • wherein the solubilizer is one or a mixture of two or more of gastrodin, water-soluble cyclodextrin and ethanol, and wherein the water-soluble cyclodextrin is one or a mixture of two or more of methyl-β-cyclodextrin, thioether-β-cyclodextrin and sulfobutyl ether-β-cyclodextrin; and • wherein the mass ratio of the carbon glycoside compound or the stilbene compound to the solubilizer is 1:1-20.
Disclosed is a method for dissolving a flavonoid compound, a carbon glycoside compound or a stilbene compound, including: • mixing the flavonoid compound, the carbon glycoside compound or the stilbene compound with a solubilizer to obtain a reactant; and • heating water for injection to 80-98 °C, followed by stirring under vacuum conditions at 30-80 °C, and then adding the reactant under the protection of nitrogen gas or argon gas to obtain a solution of the reactant.
Considering the sensitivity to heat or light of the flavonoid compound, the carbon glycoside compound or the stilbene compound, a method is provided by heating water for injection to 80-98 °C to remove dissolved oxygen and other gases in water, which reduces the surface tension of water, increases the contact area of water with the flavonoid compound, the carbon glycoside compound or the stilbene compound, thus increasing the dissolution speed. Meanwhile, pre-heating the water for injection can effectively avoid degradation of the flavonoid compound, the carbon glycoside compound or the stilbene compound due to exposure to the dissolved oxygen, to eliminate unstable factors of the flavonoid compound, the carbon glycoside compound or the stilbene compound. The vacuum conditions can achieve further deoxygenation, facilitating the dissolution of the flavonoid compound, the carbon glycoside compound or the stilbene compound in water. Nitrogen gas or argon gas provides an inert atmosphere, which further reduces the surface tension of the materials, increases the contact area of the flavonoid compound, the carbon glycoside compound or the stilbene compound with water, and increases the dissolution speed.

Molecule: CC(=O)Cc1cc(=O)c2c(C)cc(O)c([C@@H]3O[C@H](CO)[C@@H](O)[C@H](O)[C@H]3O)c2o1 [Aloesin]
dissolved in (time) (Example 22: 10 g with Hydroxypropyl-β-cyclodextrin 50 g, Sodium bicarbonate 1 g in 1000 ml, water heated to 88 °C, vacuum stirring 35 minutes, argon gas): about 5 minutes | dissolved in (time) (Example 26: 5 g with Gastrodin 100 g, Disodium edetate 0.1 g in 1000 ml, water heated to 95 °C, vacuum stirring 10 minutes, nitrogen gas): about 10 minutes

Molecule: COc1c(O)cc2c(c1O)[C@@H]1O[C@H](CO)[C@@H](O)[C@H](O)[C@H]1OC2=O [Bergenin]
dissolved in (time) (Example 21: 25 g with Gastrodin 100 g, Sulfobutyl ether-β-cyclodextrin 50 g, Sodium bicarbonate 1 g in 1000 ml, water heated to 85 °C, vacuum stirring 50 minutes, argon gas): about 10 minutes | dissolved in (time) (Example 25: 10 g with Sulfobutyl ether-β-cyclodextrin 50 g, Sodium bicarbonate 1 g in 1000 ml, water heated to 95 °C, vacuum stirring 10 minutes, argon gas): about 5 minutes | dissolved in (time) (Example 28: 5 g with Gastrodin 100 g, Disodium edetate 0.1 g in 1000 ml, water heated to 95 °C, vacuum stirring 10 minutes, nitrogen gas): about 10 minutes

Molecule: O=c1c(-c2ccc(O)cc2)coc2cc(O)ccc12 [Daidzein]
dissolved in (time) (Example 7: 10 g with Methyl-β-cyclodextrin 50 g, Sodium bicarbonate 1 g in 1000 ml, water heated to 80 °C, vacuum stirring 60 minutes, argon gas): about 5 minutes

Molecule: Taxinine
dissolved in (time) (Example 16: 12 g with Sulfobutyl ether-β-cyclodextrin 40 g in 1000 ml, water heated to 95 °C, vacuum stirring 10 minutes, nitrogen gas): about 5 minutes

Molecule: O=C1CC(c2ccccc2)Oc2cc(O)c(O)c(O)c21 (centres unmarked) [Dihydrobaicalein]
dissolved in (time) (Example 13: 5 g with Gastrodin 100 g, Disodium edetate 0.1 g, Sodium carbonate 3 g in 1000 ml, water heated to 90 °C, vacuum stirring 25 minutes, nitrogen gas): about 5 minutes

Molecule: Breviscapine
dissolved in (time) (Example 1: 5 g with Gastrodin 100 g, Sodium carbonate 10 g in 1000 ml, water heated to 95 °C, vacuum stirring 10 minutes, nitrogen gas): about 5 minutes | dissolved in (time) (Example 2: 25 g with Gastrodin 100 g, Hydroxypropyl-β-cyclodextrin 50 g, Sodium carbonate 1 g in 1000 ml, water heated to 95 °C, vacuum stirring 10 minutes, argon gas): about 5 minutes | dissolved in (time) (Example 8 (formula: Wogonin 10 g) with Thioether-β-cyclodextrin 50 g, Sodium bicarbonate 1 g in 1000 ml, water heated to 85 °C, vacuum stirring 30 minutes, argon gas): about 5 minutes

Molecule: O=C1c2c(O)cccc2C([C@@H]2O[C@H](CO)[C@@H](O)[C@H](O)[C@H]2O)c2cc(CO)cc(O)c21 (some centres unmarked) [Barbaloin]
dissolved in (time) (Example 19: 25 g with Gastrodin 100 g, Methyl-β-cyclodextrin 50 g, Sodium bicarbonate 1 g in 1000 ml, water heated to 95 °C, vacuum stirring 10 minutes, argon gas): about 10 minutes | dissolved in (time) (Example 23: 10 g with Methyl-β-cyclodextrin 50 g, Sodium bicarbonate 1 g in 1000 ml, water heated to 98 °C, vacuum stirring 10 minutes, argon gas): about 5 minutes | dissolved in (time) (Example 30: 5 g with Gastrodin 100 g, Disodium edetate 0.1 g in 1000 ml, water heated to 95 °C, vacuum stirring 10 minutes, nitrogen gas): about 10 minutes

Molecule: O=c1cc(-c2ccccc2)oc2cc(O)c(O)c(O)c12 [Baicalein]
dissolved in (time) (Example 9: 10 g with Sulfobutyl ether-β-cyclodextrin 50 g, Sodium bicarbonate 1 g in 1000 ml, water heated to 90 °C, vacuum stirring 20 minutes, argon gas): about 5 minutes

Molecule: COc1ccc(/C=C/c2cc(O)cc(O[C@@H]3O[C@H](CO)[C@@H](O)[C@H](O)[C@H]3O)c2)cc1 [Deoxyrhapontin (methyl polydatin), Deoxyrhapontin]
dissolved in (time) (Example 43: 50 g with Gastrodin 100 g, Methyl-β-cyclodextrin 30 g in 1000 ml, water heated to 98 °C, vacuum stirring 15 minutes, nitrogen gas): about 5 minutes | dissolved in (time) (Example 49: 5 g with Sulfobutyl ether-β-cyclodextrin 30 g in 1000 ml, water heated to 95 °C, vacuum stirring 10 minutes, nitrogen gas): about 5 minutes | dissolved in (time) (Example 57: 10 g with Hydroxypropyl-β-cyclodextrin 50 g (formula; text: sulfobutyl ether-β-cyclodextrin) in 1000 ml, water heated to 95 °C, vacuum stirring 10 minutes, nitrogen gas): about 5 minutes | dissolved in (time) (Example 67: 5 g with Gastrodin 100 g in 1000 ml, water heated to 95 °C, vacuum stirring 10 minutes, nitrogen gas): about 5 minutes

Molecule: O=C(O)[C@H]1O[C@@H](Oc2cc3oc(-c4ccccc4)cc(=O)c3c(O)c2O)[C@H](O)[C@@H](O)[C@@H]1O [Baicalin]
dissolved in (time) (Example 10: 5 g with Gastrodin 100 g, Disodium edetate 0.1 g, Sodium carbonate 5 g in 1000 ml, water heated to 95 °C, vacuum stirring 10 minutes, nitrogen gas): about 5 minutes

Molecule: COc1ccc([C@@H]2CC(=O)c3c(O)cc(O)cc3O2)cc1O [Hesperetin]
dissolved in (time) (Example 15: 5 g with Gastrodin 100 g, Disodium edetate 0.1 g, Sodium carbonate 2 g in 1000 ml, water heated to 95 °C, vacuum stirring 10 minutes, nitrogen gas): about 5 minutes

Other lines, results leading:

dissolved in (time) (Example 42: 50 g with Gastrodin 100 g, Hydroxypropyl-β-cyclodextrin 30 g in 1000 ml, water heated to 95 °C, vacuum stirring 10 minutes, nitrogen gas): about 5 minutes | dissolved in (time) (Example 48: 5 g with Thioether-β-cyclodextrin 30 g in 1000 ml, water heated to 92 °C, vacuum stirring 40 minutes, nitrogen gas): about 5 minutes | dissolved in (time) (Example 56: 10 g with Thioether-β-cyclodextrin 50 g in 1000 ml, water heated to 95 °C, vacuum stirring 10 minutes, nitrogen gas): about 5 minutes | dissolved in (time) (Example 66: 5 g with Gastrodin 100 g in 1000 ml, water heated to 95 °C, vacuum stirring 10 minutes, nitrogen gas): about 5 minutes
Molecule: COc1ccc(/C=C/c2cc(O)cc(O[C@@H]3O[C@H](CO)[C@@H](O)[C@H](O)[C@H]3O)c2)cc1O [Rhapontin]

dissolved in (time) (Example 12: 5 g with Gastrodin 100 g, Disodium edetate 0.1 g, Sodium carbonate 3 g in 1000 ml, water heated to 95 °C, vacuum stirring 10 minutes, nitrogen gas): about 5 minutes
Molecule: Oc1ccc2c(c1)OC[C@H]1c3cc4c(cc3O[C@@H]21)OCO4 [Maackiain]

dissolved in (time) (Example 20: 25 g with Gastrodin 100 g, Thioether-β-cyclodextrin 50 g, Sodium bicarbonate 1 g in 1000 ml, water heated to 80 °C, vacuum stirring 60 minutes, argon gas): about 10 minutes | dissolved in (time) (Example 24: 10 g with Thioether-β-cyclodextrin 50 g, Sodium bicarbonate 1 g in 1000 ml, water heated to 95 °C, vacuum stirring 10 minutes, argon gas): about 5 minutes
Molecule: O=c1cc(-c2ccc(O)c(O)c2)oc2cc(O)c([C@@H]3O[C@H](CO)[C@@H](O)[C@H](O)[C@H]3O)c(O)c12 [Homoorientin]

dissolved in (time) (Example 39: 25 g with Gastrodin 80 g, Methyl-β-cyclodextrin 30 g in 1000 ml, water heated to 80 °C, vacuum stirring 60 minutes, nitrogen gas): about 5 minutes | dissolved in (time) (Example 44: 50 g with Gastrodin 100 g, Thioether-β-cyclodextrin 30 g in 1000 ml, water heated to 95 °C, vacuum stirring 10 minutes, nitrogen gas): about 5 minutes | dissolved in (time) (Example 50: 10 g with Hydroxypropyl-β-cyclodextrin 30 g in 1000 ml, water heated to 95 °C, vacuum stirring 10 minutes, nitrogen gas): about 5 minutes | dissolved in (time) (Example 60: 20 g with Thioether-β-cyclodextrin 50 g in 1000 ml, water heated to 95 °C, vacuum stirring 10 minutes, nitrogen gas): about 5 minutes
Molecule: Oc1ccc(C=Cc2cc(O)cc(O)c2)cc1 [Resveratrol]

dissolved in (time) (Example 4: 25 g with Gastrodin 100 g, Thioether-β-cyclodextrin 50 g, Sodium carbonate 1 g in 1000 ml, water heated to 98 °C, vacuum stirring 5 minutes, argon gas): about 5 minutes
Molecule: COc1ccc(-c2oc3cc(O)cc(O)c3c(=O)c2O)cc1 [Kaempferide]

dissolved in (time) (Example 14: 5 g with Gastrodin 100 g, Disodium edetate 0.1 g, Sodium carbonate 2 g in 1000 ml, water heated to 98 °C, vacuum stirring 10 minutes, nitrogen gas): about 5 minutes
Molecule: O=C1C[C@@H](c2ccc(O)cc2)Oc2cc(O)cc(O)c21 [Naringenin]

dissolved in (time) (Example 5: 25 g with Gastrodin 100 g, Sulfobutyl ether-β-cyclodextrin 50 g, Sodium carbonate 1 g in 1000 ml, water heated to 95 °C, vacuum stirring 3 minutes, argon gas): about 5 minutes | dissolved in (time) (Example 6 (formula: Daidzin 10 g) with Hydroxypropyl-β-cyclodextrin 50 g, Sodium bicarbonate 1 g in 1000 ml, water heated to 95 °C, vacuum stirring 8 minutes, argon gas): about 5 minutes
Molecule: O=c1c(-c2ccc(O)cc2)coc2c([C@@H]3O[C@H](CO)[C@@H](O)[C@H](O)[C@H]3O)c(O)ccc12 [Puerarin]

dissolved in (time) (Example 41: 25 g with Gastrodin 80 g, Sulfobutyl ether-β-cyclodextrin 30 g in 1000 ml, water heated to 85 °C, vacuum stirring 45 minutes, nitrogen gas): about 5 minutes | dissolved in (time) (Example 46: 5 g with Hydroxypropyl-β-cyclodextrin 30 g in 1000 ml, water heated to 83 °C, vacuum stirring 25 minutes, nitrogen gas): about 5 minutes | dissolved in (time) (Example 54: 10 g with Hydroxypropyl-β-cyclodextrin 50 g in 1000 ml, water heated to 95 °C, vacuum stirring 10 minutes, nitrogen gas): about 5 minutes | dissolved in (time) (Example 64: 5 g with Gastrodin 100 g in 1000 ml, water heated to 95 °C, vacuum stirring 10 minutes, nitrogen gas): about 5 minutes
Molecule: OC[C@H]1O[C@@H](Oc2cc(O)cc(/C=C/c3ccc(O)cc3)c2)[C@H](O)[C@@H](O)[C@@H]1O [Polydatin]

dissolved in (time) (Example 3: 25 g with Gastrodin 100 g, Methyl-β-cyclodextrin 50 g, Sodium carbonate 1 g in 1000 ml, water heated to 95 °C, vacuum stirring 1 minute, argon gas): about 5 minutes
Molecule: O=c1c(O)c(-c2ccc(O)c(O)c2)oc2cc(O)cc(O)c12 [Quercetin]
